These results are taken from patent US9669014B2, “Small molecule inhibitors of superoxide dismutase expression” (Northwestern University, priority 2014, dated 2017).

Entries after “also recorded” stand apart in the source; their conditions may differ.

For one series, the system named is SOD1. Description: SOD1 protein in CNS tissues of treated G93A-SOD1 mice (ELISA). Format: in vivo, mouse. The following applies: 20 mg/kg IP every other day for 26 days. The protocol: FIG. 7. Inhibition of SOD1 protein expression in the G93A-SOD1 mouse. GSK3B-I treatment was at 20 mg/kg IP every other day for 26 days. Mice were sacrificed and SOD1 measured in the indicated tissues. […] Error bars are SEM.
Initial testing was carried out in a small cohort (5-6 animals) of G93A-SOD1 mice (high level of mutant SOD1 expression). The drug was dosed at 20 mg/kg IP every other day for 26 days. Mice were sacrificed and SOD1 was measured by ELISA.

Another series has as its system SOD1 expression. Description: SOD1 expression in G93A-SOD1 transgenic mouse motor neurons. The class given is cell-based. The text has this: The compound decreases SOD1 expression in vitro in assays done in mouse fibroblasts (FIG. 3) and mouse motor neurons (FIG. 7).
The mechanism of inhibition is largely due to a decrease in the G93A-SOD1 mRNA. The transgene expressed in the mouse uses the native human promoter. Thus, therapy with these drugs in human subjects would also lead to a decrease in SOD1 mRNA in all tissues.

A short description of series [1]: Distribution in tissues of nontransgenic mice after injection. Format: in vivo, mouse. The settings on record: 20 mg/kg intraperitoneal; for Concentration (μM), Brain / Concentration (μM), Serum / Concentration (μM), Spinal cord: n = 2. The protocol:
The blood brain barrier permeability of GSK3B-II was determined in nontransgenic mice. […] The peak and sustained concentrations found in the spinal cord and brain indicate that the 20 mg/kg dose puts the drug into the inhibitory range found in the cellular assays.
We also tested compound NUCC-434 for distribution in non-transgenic mice. […] While there are a multitude of methods for improving aqueous solubility of drugs (32) we chose a relatively simple route using a cyclodextrin based carrier (Sulfo-butylether beta-cyclodextrin, Captisol) to solubilize the drug in aqueous solution. Using the cyclodextrin carrier, we were able to solubilize NUCC-434 to 2 mg/mL in water and deliver 10 mg/kg to nontransgenic mice for pharmacokinetics. […] However, the distribution dynamics are different in the presence of the cyclodextrin which appears to slow uptake into the CNS as the peak drug concentration was delayed (Table 4). Such changes in distribution dynamics using cyclodextrins have not been studied in detail.

The next series concerns SOD1 mRNA. Put plainly: SOD1 mRNA in G93A-SOD1 mouse fibroblasts. The class given is cell-based. The text has this:
FIG. 3. […] A. Dose-dependent changes in G93A-SOD1 protein expression and B. SOD1 mRNA (n=3). Data are normalized to GAPDH activity (protein) or mRNA. Error bars are SEM.

The subject of the next series is G93A-SOD1 expression. Put plainly: SOD1 protein expression in cultured fibroblasts from G93A-SOD1 mice (ELISA). The class given is cell-based, mouse. The following applies: G93A-SOD1 mouse fibroblasts; for IC50: 48 hr treatment. Background: ELISA stands for enzyme-linked immunosorbent assay.
The next series has as its target GSK3β (Homo sapiens, UniProt P49841). The settings on record: published values; cited from earlier work.
The subject of the next series is cell toxicity. Description: Cell toxicity. Format: cell-based.

As a reminder, the IC50 is the concentration that gives 50% inhibition.

Chain of GSK3β (P49841 whole entry, species assumed): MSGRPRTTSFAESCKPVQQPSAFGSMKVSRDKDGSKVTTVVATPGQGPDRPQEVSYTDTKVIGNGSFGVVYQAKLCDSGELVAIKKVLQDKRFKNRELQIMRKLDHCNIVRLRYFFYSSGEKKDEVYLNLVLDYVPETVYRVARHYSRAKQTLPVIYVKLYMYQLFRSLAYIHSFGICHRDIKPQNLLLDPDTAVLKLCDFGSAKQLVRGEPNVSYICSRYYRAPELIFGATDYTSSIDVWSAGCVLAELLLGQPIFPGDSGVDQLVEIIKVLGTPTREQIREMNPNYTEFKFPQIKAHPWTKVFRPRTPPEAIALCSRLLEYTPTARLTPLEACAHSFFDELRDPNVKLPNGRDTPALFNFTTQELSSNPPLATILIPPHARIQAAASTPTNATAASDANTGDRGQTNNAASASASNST
Procedure for G93A-SOD1 expression: Fibroblasts were treated with the title compounds at the indicated concentration for 48 hr. Cells were washed, lysed, and SOD1 levels measured by ELISA. SOD1 levels are normalized to the total protein in the lysate.
Thus, we used cultured fibroblasts from the G93A-SOD1 transgenic mouse to screen GSK3β protein kinase inhibitors (FIG. 1) for their effects on SOD1 expression. The transgene construct contains the human SOD1 promoter so that cellular signaling processes that affect transcription of the gene will be fully functional. We chose a structurally diverse group of compounds including some natural products.

Regarding `Ic1cccc(CSc2nnc(-c3ccncc3)o2)c1` [GSK3B-II, reference compound], in the series with SOD1, the “Change of SOD1 protein in spinal cord, cerebellum, brain stem, cerebral cortex” value is “significant decreases in SOD1 were measured; also recorded: SOD1 protein is reduced”. Besides, in the series on SOD1 (listed as GSK3B-I), the “Change of SOD1 protein in spinal cord, cerebellum, brain stem, cerebral cortex” value is given as “change in expression was significant”. In the series with SOD1 expression, the “Effect on SOD1 expression in motor neurons” value is listed as “inhibits SOD1 expression”. In series [1] (1 hr), the “Concentration (μM), Brain” value is 0.944 µM; the “Concentration (μM), Serum” value is 0.672 µM; the “Concentration (μM), Spinal cord” value turned out to be 4.00 µM. Also, in series [1] (24 hr), the “Concentration (μM), Brain” value was 0.077 µM; the “Concentration (μM), Serum” value amounted to 0.073 µM; the “Concentration (μM), Spinal cord” value is 0.855 µM. In series [1] (nontransgenic mice), the “CNS distribution and persistence (in words)” value is “rapidly distributes into the brain and spinal cord; also recorded: still detectable after 24 hrs in the brain and spinal cord”. Moreover, in the series on SOD1 mRNA, the “Effect on SOD1 mRNA” value is on record as “reducing the level of SOD1 mRNA”. In the series on G93A-SOD1 expression, the “Effect on SOD1 expression (in words)” value is “most potent at inhibiting G93A-SOD1 expression; also recorded: dose dependent reduction of SOD1 expression in vitro”, the “Shape of dose-response curve for SOD1 expression” value is recorded as “biphasic dose-response curve” and the IC50 amounted to 625 nM.
Turning to `O=C(CCl)c1cc(Br)c(Br)s1` [GSK3B-VI, reference compound], the IC50 on GSK3β was 1000 nM. Moreover, the “Concentration at which cell toxicity is exhibited” value with cell toxicity is reported as “greater than 5 μM”. In the series with G93A-SOD1 expression, the “Effect on SOD1 expression (in words)” value was “inhibits SOD1 expression” and the IC50 was 650 nM.
